Data reported in patent publication US5428053A, “1-aminoacetamidopyrroles and 1-amino acetamido-2-(substituted) pyrroles and related compounds” (priority 1993, dated 1995).
Counter-ions that a name gives are not always drawn. Like-named read-outs stand apart in the source and are kept apart here.

Key:
[1] = Enhancement of step-down passive avoidance in rats; type: in vivo, rat (male Sprague Dawley); conditions: ip, 30 min prior, 24 hrs after acquisition
Experimental: In this assay, rats step off a wooden platform and subsequently receive a low-level foot shock. After 24 hours, the rats are observed for their ability to acquire and remember a passive avoidance behavior, that is, to stay on the platform. Male Sprague Dawley rats (Charles River) weighing 275-325 g were used in the passive avoidance procedure. Following a 11/2 week acclimation to the vivarium (5 rats per cage) where food and water were available ad libitum, rats were transported to the laboratory on day 1 of testing and acclimated to the experimental area and the investigator. Rats were labeled (tails marked) and handled by the investigator, then gently placed on a wooden platform (14×10.5×3.5 cm) in the experimental chamber (30.5×25×27 cm.) The chamber is equipped with a single house light and white noise generator to mask extraneous sounds. Once the animal stepped off the platform (all 4 paws touching the grid floor where grids are equally spaced every 2 cm), it was picked up by the base of the tail and returned to the home cage and then to the vivarium. On day 2, rats were returned to the laboratory and again acclimated to the experimental area for 30 min. Rats were intraperitoneally administered vehicle or compounds 30 min. prior to testing in a dosage volume of 1 ml/kg. Then the rats were gently placed on the wooden platform and their latency (in sec.) to step-down was recorded. When all four paws touched the grid, a low level 0.28 mA electric shock was delivered for 3 sec. by means of a Coulbourn Instruments grid floor shocker. Rats were immediately removed from the experimental chamber to their home cage when the shock ceased. […] Fifteen minutes later, this procedure was repeated. Rats were then returned to the vivarium. […] The latencies of each drug group on day 3 (24 hrs. following acquisition) was compared to the latencies of the vehicle control group by the non-parametric Mann-Whitney U test.

[2] = target: T1, glycine binding site associated with the N-methyl-D-aspartate (NMDA) receptor complex (Rattus norvegicus, UniProt P35439); experiment: biochemical; parameters: species or system rat (male Wistar, cortex)
T1 construct: Cortices of male Wistar rats are dissected over ice; from tissue; host or cells: cerebral cortex of male Wistar rats, Triton X-100 treated washed membranes
Experimental: This procedure is a modification of the method described by Monahan et al.^1
1. Buffer A: 0.5M Tris maleate, pH 7.4 59.3 g Tris maleate bring to 0.5 l Adjust pH to 7.4 with 0.5M Tris base
2. Buffer B: 50 mM Tris maleate, pH 7.4 Dilute Buffer A 1:10 with distilled water, adjust pH with 50 mM Tris maleate (acid) or 50 mM Tris base.
3. […] Aliquots of 20 μl to the assay tube will give a final concentration of 10^-3 M.
4. […] Aliquots of 50 μl are added to yield a final assay concentration of 10 nM.
6. Triton-X 100, 10% (v/v). A stock solution of Triton-X 100, 10% can be prepared and stored in the refrigerator. Dilute 1.0 ml of Triton-X 100 to 10.0 ml with distilled water. On the day of the assay, the tissue homogenate (1:15 dilution) is preincubated with an aliquot of the 10% solution to give a final concentration of 0.04% (v/v).
Cortices of male Wistar rats are dissected over ice and homogenized in ice-cold 0.32M sucrose (1:15 w/v) for 30 seconds with a Tissumizer setting at 70. Three cortices are pooled for one preparation. The homogenate is centrifuged at 1,000 g for 10 minutes. The supernatant is centrifuged at 20,000 g for 20 minutes. Resuspend the pellet in 15 volumes of ice-cold distilled water (Tissumizer setting 70, 15 sec) and spin at 7,600 g for 20 minutes. Save the supernatant, swirl off the upper buffy layer of the pellet and add to the supernatant. Centrifuge the supernatant at 48,000 g for 20 minutes. Resuspend the pellet with 15 volumes of cold distilled water and centrifuge. Discard the supernatant and store the pellet at -70° C.
On the day of the assay, resuspend the pellet in 15 volumes ice-cold 50 mM Tris maleate, pH 7.4. Preincubate the homogenate with Triton-X in a final concentration of 0.04% (v/v) for 30 minutes at 37° C. with agitation. Centrifuge the suspension at 48,000 g for 20 minutes. Wash the pellet an additional 3 times by resuspension with cold buffer and centrifugation. The final pellet is resuspended in a volume 25 times the original net weight.
1. Prepare assay tubes in triplicate.
50 μl Buffer A, 0.5M Tris maleate, pH 7.4
or appropriate concentration of inhibitor
500 μl Tissue homogenate
2. Following the addition of the tissue, the tubes are incubated for 20 minutes in an ice-bath at 0°-4° C. Terminate the binding by centrifugation for 20 minutes. Return the tubes to ice. Aspirate and discard the supernatant. Carefully rinse the pellet twice with 1 ml ice-cold buffer, avoiding disruption of the pellet. Transfer the pellet to scintillation vials by vortexing the pellet with 2 ml of scintillation fluid, rinse the tubes twice with 2 ml and add an additional 4 ml of scintillation fluid.
3. […] IC50 values for the competing compound are calculated by log-probit analysis of the data.

[3] = target: T2, NMDA associated strychnine-insensitive glycine modulatory site (Rattus norvegicus, UniProt P35439); experiment: biochemical; parameters: species or system rat (male Sprague Dawley, cortical tissue); conditions: for EC50: 2.5 nM [3H]TCP, L-glutamic acid 10^-7 M, read-out: ENHANCEMENT OF [3H]TCP BINDING EC50
T2 construct: cortical tissue obtained from male Sprague Dawley rats; from tissue; host or cells: cortical tissue of male Sprague Dawley rats, crude synaptosomal homogenate, lysed and washed

[4] = T-maze reinforced alternation task in rats (scopolamine-induced deficit); type: in vivo, rat (male Wistar); conditions: i.p.
Experimental: Male Wistar rats (Charles River) weighing 450-700 g were used in the T-maze procedure. Rats were housed (3 rats per cage) under standard laboratory conditions in the vivarium where food and water were available ad libitum. During training and testing, animals were transported to the dimly lit test room and acclimated for 30 min. The Lafayette Instruments T-maze consisted of a start box (30×20 cm), an alley way to the choice point (30×20 cm), a choice point area (25×25 cm), and two goal areas (30×20 cm) with a shock grid (grids every 11/2 cm) serving as the floor of the maze. Each session in the maze was controlled by a microprocessor.
Initially, animals were trained to greater than 70% choice accuracy in the maze for five consecutive days each week over a two week period. Following a 10 min. habituation to the maze, training commenced. All reinforced alternation sessions consisted of ten pseudo randomly paired trials. The first trial of each pair was the forced trial where the animal was forced to go to either the left or right goal box, since only one goal box door was open. The second trial was the choice trial where both goal box doors were open and the correct response was to enter the opposite goal to that entered on the previous forced run trial.
Each trial began when the rat was placed in the start box and allowed 15 sec. to enter the appropriate goal box. […] Following a 30 sec. intertrial interval (ITI), the next trial commenced. If during the choice trial, the rat entered the incorrect goal box (same goal entered during the forced trial), the guillotine door was closed and the rat received 5 electric shocks during the first 15 sec. of the 30 sec. ITI. All choices and latencies during the 10 paired trials were recorded by the computer controlled printer.
Animals which met criteria during training ([…]) were considered trained colony animals and were tested every other week. Testing was conducted over 3 consecutive days. Control sessions for baseline responding were conducted on days 1 and 2 so that the mean percentage of correct choices for each animal to qualify for drug testing was set at ≥70% correct choices.
The next time these animals were tested, they were administered pharmacological agents i.p. (at appropriate pretreatment times) in combination with scopolamine to measure effectiveness in reversing scopolamine-induced deficits in choice accuracy.
For statistical analysis, the means of each treatment group (drug+scopolamine) were compared to the mean of both the scopolamine alone group and the control group by the Dunnett's test.

NMDA receptor = experiment: Stimulation of [3H]TCP binding by NMDA in extensively washed rat cortical membranes; conditions: glycine 1 μM added to NMDA
[5] = read-out: % OF MAXIMAL GLYCINE RESPONSE
[6] = read-out: % OF MAXIMAL GLYCINE RESPONSE, concentration 10 μM

## Cl.NCC(=O)Nn1cccc1 [2-Amino-N-1H-pyrrol-1-ylacetamide Hydrochloride]
[1]; 10 mg/kg
  % Change from Control (median latency to step-down): +281%
[1]; 20 mg/kg
  % Change from Control (median latency to step-down): +625%
[1]; 80 mg/kg
  % Change from Control (median latency to step-down): +512%
[2]
  IC50: 14.8 µM
[3]
  EC50: 92 µM
[3]; [5]
  Emax at 100 µM: 65%

## Cl.NCC(=O)Nn1cccc1Cl [2-Amino-N-(2-chloro-1H-pyrrol-1-yl)acetamide Hydrochloride]
[1]; 10 mg/kg
  % Change from Control (median latency to step-down): +158%
[1]; 20 mg/kg
  % Change from Control (median latency to step-down): +25%
[1]; 40 mg/kg
  % Change from Control (median latency to step-down): +133%

## NCC(=O)Nn1cccc1C(=O)c1cccs1 [2-Amino-N-[2-(2-thienylcarbonyl)-1H-pyrrol-1-yl]acetamide Hydrochloride]
[2]
  IC50: 6 µM
[3]
  EC50: 0.38 µM
[3]; [5]
  Emax at 10 µM: 78%

## NCC(=O)Nn1cccc1C(=O)c1ccccc1Cl [2-amino-N-[2-(2-chloro-benzoyl)-1H-pyrrol-1-yl]-acetamide hydrochloride]
[2]
  IC50: 22.5 µM
[3]
  EC50: 3 µM
[3]; [5]
  Emax at 10 µM: 56%

## NCC(=O)Nn1cccc1C(=O)c1ccccc1F [2-amino-N-[2-(2-fluorobenzoyl)-1H-pyrrol-1-yl]acetamide hydrobromide hemihydrate]
[1]; 10 mg/kg
  % Change from Control (median latency to step-down): +471%
[1]; 20 mg/kg
  % Change from Control (median latency to step-down): +836%
[2]
  IC50: 11.2 µM
[4]; with scopolamine, 1/20 mg/kg (scopolamine/drug)
  Mean % of Correct Choice: 64%
[3]
  EC50: 3.1 µM
[3]; [6]
  Emax at 10 µM: 77%

## COc1ccccc1C(=O)c1cccn1NC(=O)CN.Cl [2-amino-N-[2-(2-methoxy-benzoyl)-1H-pyrrol-1-yl]-acetamide hydrochloride]
[1]; 1.25 mg/kg
  % Change from Control (median latency to step-down): +237%
[1]; 5 mg/kg
  % Change from Control (median latency to step-down): +80%
[1]; 10 mg/kg
  % Change from Control (median latency to step-down): +37%

## NCC(=O)Nn1cccc1C(=O)c1ccccc1C(F)(F)F [2-amino-N-[2-(2-trifluoro-methyl)benzoyl)-1H-pyrrol-1-yl]acetamide hydrobromide]
[1]; 5 mg/kg
  % Change from Control (median latency to step-down): +900%
[1]; 10 mg/kg
  % Change from Control (median latency to step-down): +77%
[1]; 20 mg/kg
  % Change from Control (median latency to step-down): +122%
[1]; 40 mg/kg
  % Change from Control (median latency to step-down): +33%

## NCC(=O)Nn1cccc1C(=O)c1cccc(F)c1.O=C(O)/C=C/C(=O)O [2-amino-N-[2-(3-fluorobenzoyl)-1H-pyrrol-1-yl]acetamide fumarate]
[1]; 5 mg/kg
  % Change from Control (median latency to step-down): +457%
[1]; 10 mg/kg
  % Change from Control (median latency to step-down): +343%
[1]; 20 mg/kg
  % Change from Control (median latency to step-down): +257%
[2]
  IC50: 4.8 µM
[3]
  EC50: 0.6 µM
[3]; [6]
  Emax at 10 µM: 76%

## COc1ccc(C(=O)c2cccn2NC(=O)CN)cc1 [2-amino-N-[2-(4-methoxybenzoyl)-1H-pyrrol-1-yl]acetamide]
[2]
  IC50: 6.6 µM
[3]
  EC50: 2 µM
[3]; read-out: % OF MAXIMAL GLYCINE RESPONSE, concentration 100 μM
  Emax at 100 µM: 89%

## NCC(=O)Nn1c(Cl)ccc1C(=O)c1ccccc1F [2-amino-N-[5-chloro-2-(2-fluorobenzoyl)-1H-pyrrol-1-yl]acetamide hydrobromide]
[2]
  IC50: 6 µM
[3]
  EC50: 1.7 µM
[3]; read-out: % OF MAXIMAL GLYCINE RESPONSE, concentration 30 μM
  Emax at 30 µM: 65%

## N[C@@H]1CONC1=O [D-cycloserine]
[1]; 5 mg/kg
  % Change from Control (median latency to step-down): +120%
[4]; with scopolamine, 1/3 mg/kg (scopolamine/drug)
  Mean % of Correct Choice: 59%
[4]; with scopolamine, 1/10 mg/kg (scopolamine/drug)
  Mean % of Correct Choice: 61%

## CC(=O)c1cccn1NC(=O)CN [N-(2-Acetyl-1H-pyrrol-1-yl)-2-aminoacetamide Hydrochloride]
[2]
  IC50: 22.5 µM
[3]
  EC50: 1.3 µM
[3]; [5]
  Emax at 10 µM: 71%

## CN1[C@@H]2C[C@@H](OC(=O)[C@H](CO)c3ccccc3)C[C@H]1[C@@H]1O[C@@H]12 [Scopolamine]
[4]; scopolamine 1 mg/kg, 30 min pretreatment
  choice accuracy (overall responding at chance levels): 50%
[4]; scopolamine alone 1 mg/kg
  Mean % of Correct Choice: 45%

## NCC(=O)O [glycine]
NMDA receptor
  potentiation of the maximal effect of NMDA on [3H]TCP binding (factor): 1.7
